Laboratory results published in patent publication USRE46856E1, “Substituted 2,3-dihydroimidazo[1,2-c]quinazoline derivatives useful for treating hyper-proliferative disorders and diseases associated with angiogenesis” (Bayer Intellectual Property GmbH, priority 2006, dated 2018).

Tests used:
PI3Kα = target: T1, PI3Kα (Homo sapiens, UniProt P42336); test: Solid-phase lipid kinase assay of PI3Kα (p110α assay); format: biochemical; conditions: recombinant truncated human p110α, 10 μM ATP
T1 construct: His6 (N); made in house; host or cells: S. frugiperda 9 (Sf9) insect cells
From the text: [Determination of IC50 Values of Compounds in Kinase Assay of PI3Kα]
LABORATORIES (Toronto, Canada). […] [γ^33P]ATP and unlabeled ATP were purchased from […] […] BIOTECH (Buckinghamshire, UK) and ROCHE DIAGNOSTICS (Mannheim, Germany), respectively. Scintillation cocktails and MicroScint PS™ were purchased from PACKARD (Meriden, Conn.). Maxisorp™ plates were purchased from NALGE NUNC INTERNATIONAL K.K. (Tokyo, Japan). All other chemicals not further specified were from WAKO PURE CHEMICALS (Osaka, Japan).
The plates were subsequently air-dried by incubation for at least 2 hours in a fume hood. The reaction was set up by mixing 25 μL/well of assay buffer 2×(100 mM MOPSO/NaOH, 0.2 M NaCl, pH 7.0, 8 mM MgCl2, 2 mg/mL BSA (fatty acid-free)), and 7.5 ng/well PI3Kα in the lipid pre-coated plate. 100× test compounds were added in 2% DMSO. The reaction was started by adding 20 μL/well of ATP mix (final 10 μM ATP; 0.05 μCi/well [γ^33P]ATP). After incubation at RT for 2 hours, the reaction was terminated by adding 50 μl/well stop solution (50 mM EDTA, pH 8.0). The plate was then washed twice with Tris-buffered saline (TBS, pH 7.4). MicroScint PS™ (PACKARD) scintillation mix was added at 100 μL/well, and radioactivity was counted using a TopCount™ (PACKARD) scintillation counter.
The inhibition percent at each concentration of compound was calculated, and IC50 values were determined from the inhibition of curve.

PI3Kβ = target: T2, PI3Kβ (Homo sapiens, UniProt P42338); test: Isozyme selectivity test: kinase assay of PI3Kβ (p110β assay); format: biochemical; conditions: recombinant truncated p110β, 7.5 ng protein/well
T2 construct: His6 (N); made in house; host or cells: S. frugiperda 9 (Sf9) insect cells
From the text: [Isozyme Selectivity Test in PI3K]
Determination of IC50 Values of Compounds in Kinase Assays of PI3Kβ and PI3Kγ

[1] = test system: IGF-1 induced AKT phosphorylation in A549 cells; test: IGF-1 induced AKT phosphorylation assay (A549 cell assay); format: cell-based; conditions: Homo sapiens; A549 cells, 25 ng/ml IGF-1, phospho-AKT(Ser 473); read-out: average IC50 in the A549 cell assay
Method in brief: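 A549 cells stimulated with 25 ng/ml IGF-1 for 10 min at 37 °C, then fixed in formaldehyde/methanol. Phospho-AKT detected by cell ELISA (primary anti-phospho-AKT, HRP secondary, ECL luminescence); IC50 from inhibition curve.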

T1 sequence (P42336 109-1068): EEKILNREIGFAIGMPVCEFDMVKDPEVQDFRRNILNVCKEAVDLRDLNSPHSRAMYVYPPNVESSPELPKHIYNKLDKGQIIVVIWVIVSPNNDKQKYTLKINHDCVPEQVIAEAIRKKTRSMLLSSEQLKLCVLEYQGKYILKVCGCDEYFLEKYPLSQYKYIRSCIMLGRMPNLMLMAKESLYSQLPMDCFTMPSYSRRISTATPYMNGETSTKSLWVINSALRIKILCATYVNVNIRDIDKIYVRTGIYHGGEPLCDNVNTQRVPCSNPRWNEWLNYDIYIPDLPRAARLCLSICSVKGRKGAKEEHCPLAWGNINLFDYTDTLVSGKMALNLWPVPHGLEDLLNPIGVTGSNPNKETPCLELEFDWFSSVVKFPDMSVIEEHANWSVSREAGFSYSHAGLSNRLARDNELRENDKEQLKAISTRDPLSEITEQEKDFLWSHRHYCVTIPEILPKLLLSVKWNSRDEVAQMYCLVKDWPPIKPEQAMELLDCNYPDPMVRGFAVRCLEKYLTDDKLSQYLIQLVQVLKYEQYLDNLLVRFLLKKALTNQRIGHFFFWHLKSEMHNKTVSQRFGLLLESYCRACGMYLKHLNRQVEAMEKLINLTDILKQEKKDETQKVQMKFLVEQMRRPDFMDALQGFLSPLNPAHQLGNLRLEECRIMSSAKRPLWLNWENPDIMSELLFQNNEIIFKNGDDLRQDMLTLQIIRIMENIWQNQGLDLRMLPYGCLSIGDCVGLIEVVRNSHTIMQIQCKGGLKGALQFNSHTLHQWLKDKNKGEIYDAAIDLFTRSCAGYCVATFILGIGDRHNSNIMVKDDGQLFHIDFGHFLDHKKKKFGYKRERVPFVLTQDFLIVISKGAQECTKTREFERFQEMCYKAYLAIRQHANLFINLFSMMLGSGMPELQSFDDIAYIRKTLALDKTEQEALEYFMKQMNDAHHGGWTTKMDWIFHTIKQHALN
T2 sequence (P42338 109-1070): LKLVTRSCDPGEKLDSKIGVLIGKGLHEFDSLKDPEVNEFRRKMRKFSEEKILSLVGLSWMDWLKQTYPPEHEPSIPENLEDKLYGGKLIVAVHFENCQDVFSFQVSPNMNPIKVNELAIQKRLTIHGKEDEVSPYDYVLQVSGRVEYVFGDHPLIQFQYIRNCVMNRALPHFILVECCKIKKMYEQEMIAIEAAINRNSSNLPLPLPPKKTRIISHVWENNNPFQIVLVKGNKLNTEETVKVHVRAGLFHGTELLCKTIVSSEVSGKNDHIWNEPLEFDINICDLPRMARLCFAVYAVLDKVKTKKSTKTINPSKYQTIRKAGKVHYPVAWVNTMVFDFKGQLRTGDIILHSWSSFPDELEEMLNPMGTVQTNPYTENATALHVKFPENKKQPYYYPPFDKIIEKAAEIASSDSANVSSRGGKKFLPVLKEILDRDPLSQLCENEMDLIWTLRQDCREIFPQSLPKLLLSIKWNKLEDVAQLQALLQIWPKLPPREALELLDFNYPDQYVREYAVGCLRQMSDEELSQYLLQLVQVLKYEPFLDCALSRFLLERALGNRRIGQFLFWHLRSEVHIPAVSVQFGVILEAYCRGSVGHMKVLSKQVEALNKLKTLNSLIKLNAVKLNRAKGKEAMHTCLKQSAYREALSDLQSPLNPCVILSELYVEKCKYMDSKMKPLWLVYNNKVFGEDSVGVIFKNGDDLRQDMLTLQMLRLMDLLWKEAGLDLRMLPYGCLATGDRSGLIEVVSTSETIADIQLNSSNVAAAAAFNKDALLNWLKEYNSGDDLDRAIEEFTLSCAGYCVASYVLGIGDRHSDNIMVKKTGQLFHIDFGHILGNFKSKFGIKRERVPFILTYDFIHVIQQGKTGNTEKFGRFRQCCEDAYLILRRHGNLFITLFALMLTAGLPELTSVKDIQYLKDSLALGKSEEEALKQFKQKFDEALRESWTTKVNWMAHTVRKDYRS

- IC50 (PI3Kα): 10 to 100 nM
- IC50 (PI3Kβ): 10 to 100 nM
- IC50 [1]: > 1000 nM
SMILES: COc1c(OCCCN2CCOCC2)ccc2c1N=C(NC(=O)c1csc(C)n1)N1CCN=C21 [Example 98, N-[7-methoxy-8-(3-morpholin-4-ylpropoxy)-2,3-dihydroimidazo[1,2-c]quinazolin-5-yl]-2-methyl-1,3-thiazole-4-carboxamide]
